Patent US20250154121A1, “CYCLIC(ALKYL)(AMINO)ALKOXY-SUBSTITUTED ARYL-PYRONE COMPOUND AND USE THEREOF” (priority 2022, published 2025)
Values joined by “and” are separate entries in the source; they are usually repeats but may differ in a detail not shown here. Equal entries are not always repeated. Where two headings read alike, the source gives them in different places.

Key:
[1] = tested on: Sendai strain of parainfluenza virus; format: in vivo
human coronavirus OC43 = format: in vivo; conditions: Table 6 (Example 17)
[2] = tested on: Influenza A (H1N1) virus FM1 strain; test: Mouse pneumonia model infected with influenza A (H1N1) virus FM1 strain (lung index); format: in vivo, ICR mice
Method: ICR mice were taken and randomly divided into: normal control group, model control group, ribavirin control group, compound 4, compound F1, compound F2, and compound F3 according to their weight class, and each drug was given in two dosage groups (10 mice in each group). Except for the normal control group, mice were slightly anesthetized with ether and infected with 15 LD50 H1N1 influenza virus liquid FM1 strain by nasal drops (30 μl per animal). The administration was started on the day of infection at 0.2 ml/10 g by gavage each time once a day for 4 days, and the normal control and model control groups were gavaged with distilled water under the same conditions. The mice were weighed and dissected on Day 5, and the lung was weighed to calculate lung index and lung index inhibition. The results were statistically processed using t-test for comparison between groups.
(§1) ICR mice were taken and randomly divided by weight class: normal control group, model control group, oseltamivir control group, compound 4, compound F4, compound F5, compound 5, and compound 7 according to their weight class, and each drug was given in two dosage groups (10 mice in each group). Except for the normal control group, mice were slightly anesthetized with ether and infected with 15 LD50 H1N1 influenza virus liquid (FM1/PR8 strain) by nasal drops (30 μl per each animal). The administration was started on the day of infection at 0.2 ml/10 g by gavage each time once a day for 4 days, and the normal control and model control groups were gavaged with distilled water under the same conditions. The mice were weighed and dissected on Day 5, and lung was weighed to calculate lung index and lung index inhibition. The results were statistically processed using t-test for comparison between groups.
(§2) ICR mice were taken and randomly divided into 9 groups according to the body weight: a normal control group, model control group, oseltamivir control group, and two dosage groups of Compound 9, Compound 12 and Compound 2, 10 mice in each group. Except the normal control group, mice were slightly anesthetized with ether and infected with 15 LD50 H1N1/PR8 influenza virus liquid by nasal drops at 30 μl per mouse. The administration was started on the day of infection, at 0.2 ml/10 g each time by gavage once a day for 4 days, and the normal control and model control groups were gavaged with distilled water under the same conditions. The mice were weighed and dissected on Day 5, and lungs were weighed to calculate lung index and lung index inhibition. The results were statistically processed using t-test for comparison between groups.

ACE2 receptor = ACE2 receptor (Homo sapiens, UniProt Q9BYF1); test: ACE2-293T/CMC cell membrane chromatography binding; conditions: ACE2-293T/CMC column
[3] = tested on: Human Coronavirus 229E (HCoV-229E); test: animal or person; format: in vivo
[4] = tested on: Influenza A (H1N1) virus PR8 strain; test: Mouse pneumonia model infected with influenza A (H1N1) virus PR8 strain (lung index); format: in vivo, ICR mice; conditions: Table 3 (Example 14)
Method: as §1, §2

SARS-CoV-2 = test: Antiviral CPE assay against SARS-CoV-2 in VeroE6 cells; format: cell-based; conditions: 100 TCID50, read-out: Inhibition rate (%) of viral CPE
[5] = Acute toxicity test in mice (single gavage, 14-day observation); format: in vivo; conditions: for mortality rate of animals: 14 days observation
Method: Seventy ICR mice, weighing 17-21 g, were randomly divided into 7 groups according to fasting body weight: a normal control group and 6 dose groups of 475, 633, 844, 1125, 1500 and 2000 mg of the test drug (compound 4)/kg, 10 mice in each group, 50/50 male and female. After fasting for about 15 h, each dosing group was administered once by gavage in a volume of 40 ml/kg, and the control group was gavaged with an equal volume of 0.5% sodium carboxymethylcellulose solution once/day, and the animals were observed continuously for 14 days after administration of the drug to observe the death of the animals.
Thirty ICR mice, weighing 17-21 g, were randomly divided into three groups according to their fasting body weight: a normal control group and 2000 mg and 4000 mg of test drug (Compound 12)/kg dose group, 10 mice in each group, 50/50 male and female. After fasting for about 15 h, each dosing group was given the drug once by gavage in a volume of 40 ml/kg, and the control group was given an equal volume of 0.5% sodium carboxymethylcellulose solution by gavage once/day, and the deaths of the animals were observed continuously for 14 days after the administration of the drug.

[6] = Table 7 (Example 18), 3.75 mg/kg/d gavage for 4 days
[7] = Table 7 (Example 18), 7.5 mg/kg/d gavage for 4 days
[8] = Table 7 (Example 18), 15 mg/kg/d gavage for 4 days
[9] = Table 11 (Example 24), 7.5 mg/kg/d gavage for 4 days
[10] = Table 11 (Example 24), 15 mg/kg/d gavage for 4 days
[11] = 7.5 mg/kg gavage once a day for 4 days
[12] = dose groups of 1125 mg drug/kg and above

ACE2 receptor, sequence (Q9BYF1 18-805): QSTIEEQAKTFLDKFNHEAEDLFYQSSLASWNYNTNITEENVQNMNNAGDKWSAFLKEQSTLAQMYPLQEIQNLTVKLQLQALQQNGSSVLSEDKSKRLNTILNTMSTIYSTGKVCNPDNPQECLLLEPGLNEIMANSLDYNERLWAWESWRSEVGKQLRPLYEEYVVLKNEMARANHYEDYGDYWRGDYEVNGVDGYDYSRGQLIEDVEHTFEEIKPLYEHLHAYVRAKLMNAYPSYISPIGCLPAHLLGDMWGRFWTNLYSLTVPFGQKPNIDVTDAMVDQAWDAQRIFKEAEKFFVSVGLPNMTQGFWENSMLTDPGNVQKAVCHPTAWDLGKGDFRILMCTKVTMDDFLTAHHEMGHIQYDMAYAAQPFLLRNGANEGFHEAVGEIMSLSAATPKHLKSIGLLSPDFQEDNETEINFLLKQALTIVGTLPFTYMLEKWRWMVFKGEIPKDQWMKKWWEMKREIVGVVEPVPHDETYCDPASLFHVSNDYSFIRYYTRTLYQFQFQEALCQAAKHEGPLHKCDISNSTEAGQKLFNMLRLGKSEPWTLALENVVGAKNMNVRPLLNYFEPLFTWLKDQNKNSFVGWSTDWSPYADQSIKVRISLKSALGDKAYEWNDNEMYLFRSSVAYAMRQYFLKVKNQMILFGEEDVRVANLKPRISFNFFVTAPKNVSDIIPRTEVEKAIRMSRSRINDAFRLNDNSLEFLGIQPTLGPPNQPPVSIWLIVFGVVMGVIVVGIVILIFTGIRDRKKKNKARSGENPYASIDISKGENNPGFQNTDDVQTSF

Compound: O=c1c(-c2ccccc2)coc2cc(OCCNC3CC3)ccc12 [Compound 4]
- inhibition rate % [1, 6]: 18.11%
- lung index [1, 6]: 0.73 ± 0.07 lung weight/100 g body weight
- inhibition rate % [1, 7]: 26.20%
- lung index [1, 7]: 0.72 ± 0.05 lung weight/100 g body weight
- inhibition rate % [1, 8]: 46.39%
- lung index [1, 8]: 0.70 ± 0.05 lung weight/100 g body weight
- inhibition rate % [1, 9]: 54.48%
- lung index [1, 9]: 0.77 ± 0.04 Lung weight * 100/body weight
- inhibition rate % [1, 10]: 45.45%
- lung index [1, 10]: 0.78 ± 0.04 Lung weight * 100/body weight
- inhibition rate % (human coronavirus OC43; 3.75 mg/kg/d gavage for 4 days): 33.28%
- lung index (human coronavirus OC43; 3.75 mg/kg/d gavage for 4 days): 0.81 ± 0.08 g lung weight × 100/g body weight
- inhibition rate % (human coronavirus OC43; 7.5 mg/kg/d gavage for 4 days): 32.42%
- lung index (human coronavirus OC43; 7.5 mg/kg/d gavage for 4 days): 0.82 ± 0.05 g lung weight × 100/g body weight
- inhibition rate % (human coronavirus OC43; 15 mg/kg/d gavage for 4 days): 47.43%
- lung index (human coronavirus OC43; 15 mg/kg/d gavage for 4 days): 0.79 ± 0.10 g lung weight × 100/g body weight
- inhibition in vivo at 25 mg/kg ([2]; Influenza A virus, H1N1, po, 96 h, Table 1 (Example 13), 25 mg/kg gavage once a day for 4 days, read-out: inhibition rate (%)): 23.7%
- inhibition in vivo at 50 mg/kg ([2]; Influenza A virus, H1N1, po, 96 h, Table 1 (Example 13), 50 mg/kg gavage once a day for 4 days, read-out: inhibition rate (%)): 39.3%
- inhibition in vivo at 20 mg/kg ([2]; Influenza A virus, H1N1, po, 96 h, Table 2 (Example 14), 20 mg/kg gavage once a day for 4 days, read-out: inhibition rate (%)): 15.1%
- inhibition in vivo at 40 mg/kg ([2]; Influenza A virus, H1N1, po, 96 h, Table 2 (Example 14), 40 mg/kg gavage once a day for 4 days, read-out: inhibition rate (%)): 54%
- lung index ([2]; Table 1 (Example 13), 25 mg/kg gavage once a day for 4 days): 1.09 ± 0.13
- lung index ([2]; Table 1 (Example 13), 50 mg/kg gavage once a day for 4 days): 1.01 ± 0.12
- lung index ([2]; Table 2 (Example 14), 20 mg/kg gavage once a day for 4 days): 1.04 ± 0.12
- lung index ([2]; Table 2 (Example 14), 40 mg/kg gavage once a day for 4 days): 0.89 ± 0.20
- Kd (ACE2 receptor): 1.07 µM
- inhibition in vivo at 40 mg/kg/day ([3]; Human coronavirus 229E, in Mus musculus, po, 96 h, Table 4 (Example 15), 40 mg/kg/d gavage for 4 days, read-out: inhibition rate (%)): 41.9%
- inhibition in vivo at 50 mg/kg/day ([3]; Human coronavirus 229E, in Mus musculus, po, 96 h, Table 4 (Example 15), 50 mg/kg/d gavage for 4 days, read-out: inhibition rate (%)): 41%
- inhibition in vivo at 7.5 mg/kg/day ([3]; Human coronavirus 229E, in Mus musculus, po, 96 h, Table 5 (Example 16), 7.5 mg/kg/d gavage for 4 days, read-out: inhibition rate (%)): 44.3%
- inhibition in vivo at 15 mg/kg/day ([3]; Human coronavirus 229E, in Mus musculus, po, 96 h, Table 5 (Example 16), 15 mg/kg/d gavage for 4 days, read-out: inhibition rate (%)): 76.5%
- inhibition in vivo at 30 mg/kg/day ([3]; Human coronavirus 229E, in Mus musculus, po, 96 h, Table 5 (Example 16), 30 mg/kg/d gavage for 4 days, read-out: inhibition rate (%)): 86.5%
- inhibition in vivo at 7.5 mg/kg/day ([3]; Human coronavirus 229E, in Mus musculus, po, 96 h, Table 10 (Example 23), 7.5 mg/kg/d gavage for 4 days, read-out: inhibition rate (%)): 50%
- lung index ([3]; Table 4 (Example 15), 40 mg/kg/d gavage for 4 days): 0.76 ± 0.02 g lung weight × 100/g body weight
- lung index ([3]; Table 4 (Example 15), 50 mg/kg/d gavage for 4 days): 0.76 ± 0.08 g lung weight × 100/g body weight
- lung index ([3]; Table 5 (Example 16), 7.5 mg/kg/d gavage for 4 days): 0.71 ± 0.11 g lung weight × 100/g body weight
- lung index ([3]; Table 5 (Example 16), 15 mg/kg/d gavage for 4 days): 0.67 ± 0.08 g lung weight × 100/g body weight
- lung index ([3]; Table 5 (Example 16), 30 mg/kg/d gavage for 4 days): 0.66 ± 0.05 g lung weight × 100/g body weight
- lung index ([3]; Table 10 (Example 23), 7.5 mg/kg/d gavage for 4 days): 0.81 ± 0.03 g lung weight × 100/g body weight
- inhibition rate % [4, 11]: 23.91%
- lung index [4, 11]: 0.98 ± 0.11
- lung index ([4]; 15 mg/kg gavage once a day for 4 days): 0.83 ± 0.10
- inhibition rate % ([4]; 15 mg/kg gavage once a day for 4 days, 15 mg/kg): 54.04% and 60.27%
- inhibition at 1.95 µg/mL (SARS-CoV-2; Severe acute respiratory syndrome coronavirus 2, Vero C1008, drug concentration 1.95 μg/mL): 6.67 ± 2.89%
- inhibition at 3.9 µg/mL (SARS-CoV-2; Severe acute respiratory syndrome coronavirus 2, Vero C1008, drug concentration 3.9 μg/mL): 25 ± 5%
- inhibition at 7.8 µg/mL (SARS-CoV-2; Severe acute respiratory syndrome coronavirus 2, Vero C1008, drug concentration 7.8 μg/mL): 76.7 ± 2.89%
- inhibition at 15.6 µg/mL (SARS-CoV-2; Severe acute respiratory syndrome coronavirus 2, Vero C1008, drug concentration 15.6 μg/mL): 90 ± 5%
- mortality rate of animals ([5]; 475 mg/kg single gavage): 0%
- mortality rate of animals ([5]; 633 mg/kg single gavage): 0%
- mortality rate of animals ([5]; 844 mg/kg single gavage): 0%
- mortality rate of animals ([5]; 1125 mg/kg single gavage): 20%
- mortality rate of animals ([5]; 1500 mg/kg single gavage): 80%
- mortality rate of animals ([5]; 2000 mg/kg single gavage): 100%
- LD50 ([5]; Bliss method, single gavage, mice): 1299.054 mg of drug/kg
- maximum non-adverse effect dose ([5]; both, ICR, mouse, in vivo, 14 days): 475 mg of drug/kg
- peak of the deaths after the drug [5, 12]: 24 to 48 h
- time of animal deaths after the drug [5, 12]: ≤ 4 days
- maximum non-lethal dose ([5]; single gavage, mice): 844 mg of drug/kg
